In article PMC8951016, “Computational Design and Biological Evaluation of Analogs of Lupin Peptide P5 Endowed with Dual PCSK9/HMG-CoAR Inhibiting Activity” (Pharmaceutics, 2022):
Read-outs that look alike come from different tables or passages of the source. No end group written: not given here.

Tests used:
PCSK9-LDLR [1] = molecular target: T1, PCSK9-LDLR (Homo sapiens, UniProt Q8NBP7); assay: In vitro PCSK9-LDLR binding assay; conditions: 0.1–100 µM, LDLR-AB coated plate, 2 h at RT, absorbance 450 nm; four independent experiments in duplicate
T1 construct: purchased CycLex Co., Nagano, Japan (CircuLex)
Experimental: Peptides P5 and P5 analogs (0.1–100 µM) were tested using the in vitro PCSK9-LDLR binding assay (CycLex Co., Nagano, Japan) following the manufacture instructions and conditions already optimized. Further details are provided in Supplementary Materials. […]
cLex Co., Nagano, Japan). The peptides (P5, P5-Best, P-H6A, and P5-S7A) were synthe-sized by the company GeneScript (Piscataway, NJ, USA) at >95% purity. The antibody against HMG-CoAR was bought from Abcam (Cambridge, UK). Phenylmethanesulfonyl fluoride (PMSF), Na-orthovanadate inhibitors, and the antibodies against rabbit Ig-horse-radish peroxidase (HRP), mouse Ig-HRP, and SREBP-2 (which recognizes epitope located in a region between 833–1141 and bands at about 132 kDa) were purchased from Santa Cruz Biotechnology Inc. (Santa Cruz, CA, USA). […]
(§1) HMG-CoAR Aactivity Assay. […] Subsequently, the samples were mixed and the absorbance at 340 nm read by the microplate reader Synergy H1 (Winooski, VT, USA) at time 0 and 10 min. The HMG-CoAR-dependent oxidation of NADPH and the inhibition properties of peptides were measured by absorbance reduction, which is directly proportional to enzyme activ- […]
(§2) In Vitro PCSK9-LDLR Binding Assay. […] The reaction was stopped with 2.0 M sulfuric acid and the absorbance at 450nm was measured using the Synergy H1 fluorescent plate reader […]

[2] = molecular target: T2, HMG-CoAR (catalytic domain) (Homo sapiens, UniProt P04035); assay: HMG-CoAR activity assay; format: biochemical; conditions: 10–500 µM, 37 °C, NADPH oxidation, absorbance 340 nm at 0 and 10 min; four independent experiments in duplicate
T2 construct: finally the HMG-CoAR (cata- lytic domain) (2 µL); purchased Sigma-Aldrich
T2 sequence (P04035 426-888 limits assumed): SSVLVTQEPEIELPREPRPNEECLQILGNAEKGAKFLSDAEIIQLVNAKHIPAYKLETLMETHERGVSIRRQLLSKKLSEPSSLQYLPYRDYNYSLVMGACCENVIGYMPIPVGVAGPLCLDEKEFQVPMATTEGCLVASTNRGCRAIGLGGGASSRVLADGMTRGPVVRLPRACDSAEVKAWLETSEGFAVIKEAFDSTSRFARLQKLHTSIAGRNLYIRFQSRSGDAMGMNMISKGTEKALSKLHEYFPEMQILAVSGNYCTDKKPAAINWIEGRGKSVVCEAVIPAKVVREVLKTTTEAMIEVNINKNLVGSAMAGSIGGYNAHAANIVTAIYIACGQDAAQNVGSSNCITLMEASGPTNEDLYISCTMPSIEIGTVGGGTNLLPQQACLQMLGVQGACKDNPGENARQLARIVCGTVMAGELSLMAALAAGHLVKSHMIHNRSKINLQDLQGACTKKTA
Experimental: The experiments were carried out following the manufacturer instructions and optimized protocol. See Supplementary Materials for further details. […]
cLex Co., Nagano, Japan). The peptides (P5, P5-Best, P-H6A, and P5-S7A) were synthe-sized by the company GeneScript (Piscataway, NJ, USA) at >95% purity. The antibody against HMG-CoAR was bought from Abcam (Cambridge, UK). Phenylmethanesulfonyl fluoride (PMSF), Na-orthovanadate inhibitors, and the antibodies against rabbit Ig-horse-radish peroxidase (HRP), mouse Ig-HRP, and SREBP-2 (which recognizes epitope located in a region between 833–1141 and bands at about 132 kDa) were purchased from Santa Cruz Biotechnology Inc. (Santa Cruz, CA, USA). The antibodies against hepatocyte nu-clear factor 1-alpha (HNF1-alpha) and PCSK9 were bought from GeneTex (Irvine, CA, USA). The inhibitor cocktail Complete Midi was from Roche (Basel, Switzerland). Mini protean TGX pre-cast gel 7.5% and Mini nitrocellulose Transfer Packs were purchased from BioRad (Hercules, CA, USA).
HepG2 Cell Culture Conditions and Treatment. The HepG2 cell line was bought from ATCC (HB-8065, ATCC from LGC Standards, Milan, Italy) and was cultured in DMEM high glucose with stable L-glutamine, supplemented with 10% FBS, 100 U/mL penicillin, 100 µg/mL streptomycin (complete growth medium) with incubation at 37 °C […]
as §1, with “Assay. The experiments were carried out following the man-ufacturer instructions and optimized protocol. The assay buffer, NADPH, substrate solution, and HMG-CoAR were provided in the HMG-CoAR Assay Kit (Sigma Aldrich SRL, Milan, Italy).” for “Assay.”
as §2

[3] = molecular target: T2, HMG-CoAR (catalytic domain); conditions: metabolite; read-out: IC50, HMG-CoAR activity (P5-met); cited from earlier work
LDLR = test system: LDLR; design: method as in 3 sources, ref 48 = [48]; doi:10.1111/jfbc.12757; 48. Lammi C. Zanoni C. Arnoldi A. Aiello G. […] (P3), a peptide from lupin protein, absorbed by Caco-2 cells, modulates cholesterol metabolism in HepG2 cells via SREBP-1 activation J. Food B ||| ref 22 = [22]; doi:10.1016/j.jff.2017.02.009; 22. Zanoni C. Aiello G. Arnoldi A. Lammi C. Investigations on the hypocholesterolaemic activity of […] and LTFPGSAED, two peptides from lupin β-conglutin: Focus on LDLR and PCSK9 pathways J. Fu ||| ref 24 = [24]; PMID 33808034; doi:10.3390/nu13030863; 24. Lammi C. Aiello G. Bollati C. Li J. Bartolomei M. Ranaldi G. Ferruzza S. Fassi E.M.A. Grazioso G. Sambuy Y. Trans-Epithelial Transport, Metabolism, and Biological Activity Assessment of the Multi-; conditions: cellular level, through modulation of SREBP-2; cited from earlier work
PCSK9 = test system: PCSK9; design: method as in 3 sources, ref 49 = [49]; PMID 35011066; doi:10.3390/nu14010193; 49. Macchi C. Greco M.F. Ferri N. Magni P. Arnoldi A. Corsini A. Sirtori C.R. Ruscica M. Lammi C. Impact of Soy β-Conglycinin Peptides on PCSK9 Protein Expression in HepG2 Cells Nutrients 2021 14 193 ||| ref 22 = [22]; doi:10.1016/j.jff.2017.02.009; 22. Zanoni C. Aiello G. Arnoldi A. Lammi C. Investigations on the hypocholesterolaemic activity of […] and LTFPGSAED, two peptides from lupin β-conglutin: Focus on LDLR and PCSK9 pathways J. Fu ||| ref 24 = [24]; PMID 33808034; doi:10.3390/nu13030863; 24. Lammi C. Aiello G. Bollati C. Li J. Bartolomei M. Ranaldi G. Ferruzza S. Fassi E.M.A. Grazioso G. Sambuy Y. Trans-Epithelial Transport, Metabolism, and Biological Activity Assessment of the Multi-; conditions: cellular level, through modulation of HNF-1α; cited from earlier work
PCSK9-LDLR [4] = molecular target: T1, PCSK9-LDLR; conditions: cited from earlier work; for impairment of PCSK9-LDLR binding vs control: fixed concentration of 100 µM
[5] = read-out: IC50, PCSK9-LDLR binding (Pep2-8 analogs)

T1 sequence (Q8NBP7 153-692): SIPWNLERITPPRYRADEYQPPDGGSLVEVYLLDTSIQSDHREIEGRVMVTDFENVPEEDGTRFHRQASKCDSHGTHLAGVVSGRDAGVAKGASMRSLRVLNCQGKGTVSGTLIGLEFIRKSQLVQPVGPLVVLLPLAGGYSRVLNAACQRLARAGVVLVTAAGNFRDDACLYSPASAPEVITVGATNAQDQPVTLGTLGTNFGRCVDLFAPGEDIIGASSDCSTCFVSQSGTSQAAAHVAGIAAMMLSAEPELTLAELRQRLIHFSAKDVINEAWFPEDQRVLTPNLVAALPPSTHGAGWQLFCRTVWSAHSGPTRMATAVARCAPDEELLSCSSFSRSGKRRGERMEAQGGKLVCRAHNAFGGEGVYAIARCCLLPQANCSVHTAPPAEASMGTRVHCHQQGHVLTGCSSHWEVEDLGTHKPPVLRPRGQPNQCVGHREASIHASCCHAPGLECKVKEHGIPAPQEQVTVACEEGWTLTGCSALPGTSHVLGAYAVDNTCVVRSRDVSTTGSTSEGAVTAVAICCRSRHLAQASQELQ
T1 sequence (Q8NBP7 31-152 partner limits assumed): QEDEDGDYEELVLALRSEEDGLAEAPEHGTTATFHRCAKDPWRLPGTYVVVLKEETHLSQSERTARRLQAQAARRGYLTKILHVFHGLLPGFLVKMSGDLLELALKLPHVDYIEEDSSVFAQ

Substance | IC50 (PCSK9-LDLR [1]) [µM] | IC50 [2] [µM] | impairment of PCSK9-LDLR binding vs control (PCSK9-LDLR [4]) [%] | IC50 (PCSK9-LDLR [4]; [5]) [µM] | other results
LILPKASDAD [Peptide P5-H6A] | 9 | 74.4 | – | – | –
LILPKHADAD [Peptide P5-S7A] | 1.45 | 73.8 | – | – | –
LPKHSDAD [Peptide P5-met, breakdown fragment (metabolite) of P5] | – | – | – | – | IC50 [3]: 175 µM; LDLR level (P5-met, words) (LDLR): improves the LDLR; PCSK9 level (P5-met, words) (PCSK9): reduces PCSK9 levels; IC50 (PCSK9-LDLR [4]; metabolite, read-out: IC50, PCSK9-LDLR binding (P5-met)): 1.7 µM
LYLPKHSDRD [Peptide P5-Best] | – | 88.9 | – | – | –
[T4R,W12Y]Pep2-8: analog of peptide Pep2-8 (TVFRSWEEYLDYV) | – | – | −93.0 | 14.5 ± 1.3 | –
[Y9A]Pep2-8: analog of peptide Pep2-8 (TVFTSWEEALDWV) | – | – | −69.8 | 27.1 ± 1.2 | –
